{"source": "patent US8852654B2", "about": "(priority 2011, dated 2014)", "key": {"[1]": {"test": "Double blind randomized clinical assay in women with low urinary tract infection treated with nitrofurantoin", "assay_type": "in vivo, human", "text": "Patients were ambulatory in the Urology Polyclinical of the Clinical Hospital of the University of Chile (HCUCH). Those that fulfilled the inclusion and exclusion criteria signed an informed consent to participate in the study. Patients were distributed randomly in the two following groups:\nDuring the treatment, under medical and nursery checkup registers of adverse reactions, hemogram, biochemical profile, urocultive and determination of plasma antioxidant capacity were made."}, "[2]": {"settings": "cited from earlier work"}}, "data": [{"smiles": "O=C1CN(/N=C/c2ccc([N+](=O)[O-])o2)C(=O)N1", "note": "[nitrofurantoin, N-(5-nitro-2-furfuriliden)-1-aminohidantoin]", "values": [{"measurement": "Biochemical profile values compared with reference values", "setting": "[1]; human, in vivo", "result": "not statistically different from reference values"}, {"measurement": "Hemogram values compared with reference values", "setting": "[1]; human, in vivo", "result": "not statistically different from reference values"}, {"measurement": "Patients passed away because of the gastrointestinal adverse reactions", "setting": "[1]; received only nitrofurantoin, 100 mg every 12 hours, 15 patients per group", "result": 2, "unit": "patients"}, {"measurement": "Absorption", "setting": "[2]; after oral administration", "result": "almost completely absorbed"}, {"measurement": "Maximum plasma concentrations", "setting": "[2]; oral", "result": "about 1 mg/L"}, {"measurement": "Plasma half-life", "setting": "[2]; oral, prolonged in renal insufficiency", "result": "20 to 30", "unit": "min"}]}]}
